Columns and labels:
[1] = test system: Poly(I:C) Na^+ (RNA, polymer, hypoxanthine (inosine) in place of every G of strand 1 (polyinosinic acid)) G/C; assay: UV melting; conditions: PBS, 0 mM Mg2+, derived from two Tm (64 and 65), compound concentration not in material, per base
[2] = test system: Poly(I:C) HMW (RNA, polymer, hypoxanthine (inosine) in place of every G of strand 1 (polyinosinic acid)) G/C; assay: UV melting; conditions: PBS, 0 mM Mg2+, derived from two Tm (67 and 67), compound concentration not in material, per base

CN(C)[C@@H]1C(=O)C(C(N)=O)=C(O)[C@@]2(O)C(=O)C3=C(O)c4c(O)cccc4[C@@](C)(O)[C@H]3C[C@@H]12
melting temperature shift (ΔTm) [1]: -1 °C
melting temperature shift (ΔTm) [2]: 0 °C
